Measurements as given in patent US12324830B2 (priority 2018, dated 2025).
Numbered stars: 1 amine (or outer) side, 2 acyl side, 3 side chain; on linkers, the order of the positions; unused ones are H or OH. Bridge positions count the residues as written; N and C are the ends. Square brackets hold non-standard residues; d marks the D form. Peptide text beside a SMILES is read from it. * marks the point of attachment. hTyr(3S-OH,4S-OH,3'-OSO3H) = N[C@H](C(=O)O)[C@H](O)[C@@H](O)c1ccc(O)c(OS(=O)(=O)O)c1; Orn(4R-OH,5R-OH) = O=C([C@H](C[C@@H](O)[C@@H](O)N[*:3])N[*:1])[*:2]; Pro(3S-OH,4S-Me) = C[C@H]1CN[C@H](C(=O)O)[C@H]1O; X1 = CCCCCOc1ccc(-c2cc(-c3ccc(C(=O)*)cc3)no2)cc1; Gln(3R-OH) = NC(=O)C[C@@H](O)[C@H](N)C(=O)O; Hyp = O=C(O)[C@@H]1C[C@@H](O)CN1

Test system: C. auris
Parameters: species or system mice
Details: mouse, in vivo

Compound: CCCCCOc1ccc(-c2cc(-c3ccc(C(=O)N[C@H]4C[C@@H](O)[C@@H](O)NC(=O)[C@@H]5[C@@H](O)[C@@H](C)CN5C(=O)[C@H]([C@H](O)CC(N)=O)NC(=O)[C@H]([C@H](O)[C@@H](O)c5ccc(O)c(OS(=O)(=O)O)c5)NC(=O)[C@@H]5C[C@@H](O)CN5C(=O)[C@H]([C@@H](C)O)NC4=O)cc3)no2)cc1 [micafungin] (X1-[Orn(4R-OH,5R-OH)]T[Hyp][hTyr(3S-OH,4S-OH,3'-OSO3H)][Gln(3R-OH)][Pro(3S-OH,4S-Me)]; lactam 1-C)
- survival: 20%
